Laboratory results: US20030162258A1, “Inhibitors of G protein-mediated signaling, methods of making them, and uses thereof” (Northwestern University, priority 2000, published 2003)

Experiments:
[1] = test system: PAR-1 gene promotor; assay: Thrombin-stimulated PAR-1 gene induction, luciferase reporter assay in HMEC; type: cell-based, human; settings: 10 nanomolar thrombin, four hours, pertussis toxin 100 nanograms per milliliter pretreatment
Text: Thrombin treatment of cells induces the expression of the gene encoding its GPCR, PAR-1. This induction is mediated through the PAR-1 gene promotor sequence. The PAR-1 gene promotor sequence can be made to direct the expression of a reporter gene such as, the luciferase gene, thereby providing a means of observing the level of PAR-1 gene induction occurring in response to thrombin treatment of cells.
A PAR-1 promoter sequence comprising 1.82 kilobases was inserted upstream of the gene, Firefly (Photinus pyralis) luciferase in a pGL2 vector DNA to generate the plasmid DNA, PCR-1/Luc. The sea pansy (Renilla reniformis) luciferase gene operably linked to the Herpes Simplex Virus-Thymidine Kinase promoter (TK) in a pRL vector DNA (TK/pRL) served as an internal control to correct for experimental variation. HMEC were co-transfected with 100 nanograms each of a reporter DNA, PCR-1/Luc or TK/pRL, and one of pcDNA3.1, pcDNA-Gαi, or pcDNA-GαiR using protocols and reagents described in the previous Example. Twenty four hours post-transfection, HMEC were incubated in serum-free culture media (Dulbecco's Modified Eagles Medium, DMEM) for 2 hr at 37° C., following which, thrombin was added to the culture media at a concentration of 10 nanomolar. The cells were then incubated at 37° C. for four hours and lysed. […]

[2] = target: thrombin receptor, PAR-1, in human microvascular endothelial cells (HMEC) (human) (UniProt P25116); assay: cell-based or functional assay
Sequence of UniProt P25116 (P25116 42-425): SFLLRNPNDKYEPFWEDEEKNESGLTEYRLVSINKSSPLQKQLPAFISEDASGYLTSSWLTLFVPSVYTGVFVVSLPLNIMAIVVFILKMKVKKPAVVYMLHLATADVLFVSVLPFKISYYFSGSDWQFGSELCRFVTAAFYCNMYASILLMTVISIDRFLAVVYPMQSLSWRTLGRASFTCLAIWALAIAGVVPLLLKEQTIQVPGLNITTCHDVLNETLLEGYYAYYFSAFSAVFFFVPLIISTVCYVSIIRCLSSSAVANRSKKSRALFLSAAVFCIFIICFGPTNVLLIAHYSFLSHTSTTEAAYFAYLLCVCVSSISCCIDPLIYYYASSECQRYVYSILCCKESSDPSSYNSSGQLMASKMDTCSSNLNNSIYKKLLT

decrease in transendothelial electrical resistance (TEER) following thrombin stimulation, HMEC [2]	Substance	level of luciferase activity after thrombin treatment (PAR-1 gene induction) [1]
	Pertussis toxin	blocked the increase in luciferase levels
23%	Gαs carboxy terminal peptide encoded by minigene pcDNA-Gαs (from UniProt P63092 384-394)	
